Laboratory results published in BigSolDB 2.1.

Work on `CC1(C)COP(=O)(C(C)(C)O)OC1` yielded a solubility (mole fraction) (in 1,2-dichloroethane, 283.65 K) of 0.00134, a solubility (mole fraction) (in 1,2-dichloroethane, 288.55 K) of 0.00156 and a solubility (mole fraction) (in 1,2-dichloroethane, 293.65 K) of 0.00196. The solubility (mole fraction) (in 1,2-dichloroethane, 298.25 K) was 0.00249, the solubility (mole fraction) (in 1,2-dichloroethane, 303.15 K) was 0.00308 and the solubility (mole fraction) (in 1,2-dichloroethane, 308.05 K) was 0.00418. For the same compound, the solubility (mole fraction) (in 1,2-dichloroethane, 313 K) was 0.00519, the solubility (mole fraction) (in 1,2-dichloroethane, 317.8 K) was 0.00654 and the solubility (mole fraction) (in 1,2-dichloroethane, 322.7 K) was 0.00788. For the same compound, the solubility (mole fraction) (in acetone, 278.15 K) was 0.0024, the solubility (mole fraction) (in acetone, 283.65 K) was 0.00286 and the solubility (mole fraction) (in acetone, 288.25 K) was 0.00329. The solubility (mole fraction) (in acetone, 293.75 K) was 0.00415, the solubility (mole fraction) (in acetone, 298.65 K) was 0.00505 and the solubility (mole fraction) (in acetone, 303.15 K) was 0.00596. It also gave a solubility (mole fraction) (in acetone, 308.05 K) of 0.007, a solubility (mole fraction) (in acetone, 312.95 K) of 0.00821 and a solubility (mole fraction) (in acetone, 317.75 K) of 0.00998. For the same compound, the solubility (mole fraction) (in acetone, 322.55 K) was 0.0118, the solubility (mole fraction) (in acetonitrile, 278.65 K) was 0.00174 and the solubility (mole fraction) (in acetonitrile, 283.65 K) was 0.00222. The solubility (mole fraction) (in acetonitrile, 288.85 K) was 0.00295, the solubility (mole fraction) (in acetonitrile, 293.75 K) was 0.00357 and the solubility (mole fraction) (in acetonitrile, 298.25 K) was 0.00413. It also gave a solubility (mole fraction) (in acetonitrile, 303.2 K) of 0.00513, a solubility (mole fraction) (in acetonitrile, 308.15 K) of 0.00629 and a solubility (mole fraction) (in acetonitrile, 312.9 K) of 0.00754. For the same compound, the solubility (mole fraction) (in acetonitrile, 318.3 K) was 0.00901, the solubility (mole fraction) (in acetonitrile, 322.8 K) was 0.0111 and the solubility (mole fraction) (in acetonitrile, 328 K) was 0.0135. The solubility (mole fraction) (in acetonitrile, 332.65 K) was 0.0165, the solubility (mole fraction) (in chloroform, 278.9 K) was 0.0132 and the solubility (mole fraction) (in chloroform, 283.85 K) was 0.0139. It also gave a solubility (mole fraction) (in chloroform, 288.55 K) of 0.0147, a solubility (mole fraction) (in chloroform, 293.85 K) of 0.0174 and a solubility (mole fraction) (in chloroform, 298.3 K) of 0.0212. It also gave a solubility (mole fraction) (in chloroform, 303.25 K) of 0.0244, a solubility (mole fraction) (in chloroform, 308.05 K) of 0.0302 and a solubility (mole fraction) (in chloroform, 313.15 K) of 0.0364. It also gave a solubility (mole fraction) (in chloroform, 317.75 K) of 0.0421, a solubility (mole fraction) (in chloroform, 322.75 K) of 0.0508 and a solubility (mole fraction) (in ethanol, 278.85 K) of 0.0199. For the same compound, the solubility (mole fraction) (in ethanol, 283.75 K) was 0.023, the solubility (mole fraction) (in ethanol, 288.55 K) was 0.0265 and the solubility (mole fraction) (in ethanol, 293.65 K) was 0.0315. For the same compound, the solubility (mole fraction) (in ethanol, 298.35 K) was 0.0349, the solubility (mole fraction) (in ethanol, 303.55 K) was 0.0403 and the solubility (mole fraction) (in ethanol, 308.55 K) was 0.046. It also gave a solubility (mole fraction) (in ethanol, 313.25 K) of 0.0528, a solubility (mole fraction) (in ethanol, 318.05 K) of 0.0592 and a solubility (mole fraction) (in ethanol, 323.15 K) of 0.065. For the same compound, the solubility (mole fraction) (in ethyl acetate, 293.75 K) was 0.00129, the solubility (mole fraction) (in ethyl acetate, 298.35 K) was 0.00141 and the solubility (mole fraction) (in ethyl acetate, 303.35 K) was 0.00187. For the same compound, the solubility (mole fraction) (in ethyl acetate, 308.15 K) was 0.00231, the solubility (mole fraction) (in ethyl acetate, 313.35 K) was 0.0028 and the solubility (mole fraction) (in ethyl acetate, 318 K) was 0.00372. The solubility (mole fraction) (in ethyl acetate, 322.75 K) was 0.00445, the solubility (mole fraction) (in ethyl acetate, 328.25 K) was 0.00563 and the solubility (mole fraction) (in ethyl acetate, 333.55 K) was 0.00714. The solubility (mole fraction) (in ethyl acetate, 337.65 K) was 0.00819, the solubility (mole fraction) (in ethyl acetate, 342.85 K) was 0.0102 and the solubility (mole fraction) (in methanol, 279.05 K) was 0.0374. It also gave a solubility (mole fraction) (in methanol, 283.75 K) of 0.0416, a solubility (mole fraction) (in methanol, 288.25 K) of 0.0472 and a solubility (mole fraction) (in methanol, 293.75 K) of 0.0527. It also gave a solubility (mole fraction) (in methanol, 298.65 K) of 0.0577, a solubility (mole fraction) (in methanol, 303.25 K) of 0.0653 and a solubility (mole fraction) (in methanol, 308.45 K) of 0.0725. For the same compound, the solubility (mole fraction) (in methanol, 312.95 K) was 0.0792, the solubility (mole fraction) (in methanol, 317.75 K) was 0.0862 and the solubility (mole fraction) (in methanol, 322.65 K) was 0.0968. For the same compound, the solubility (mole fraction) (in water, 283.55 K) was 0.00713, the solubility (mole fraction) (in water, 288.85 K) was 0.00723 and the solubility (mole fraction) (in water, 294.7 K) was 0.007. The solubility (mole fraction) (in water, 298.25 K) was 0.00711, the solubility (mole fraction) (in water, 303.3 K) was 0.00736 and the solubility (mole fraction) (in water, 308.25 K) was 0.00757. It also gave a solubility (mole fraction) (in water, 313.35 K) of 0.00805, a solubility (mole fraction) (in water, 318.3 K) of 0.00861 and a solubility (mole fraction) (in water, 323.15 K) of 0.00911. For the same compound, the solubility (mole fraction) (in water, 328.05 K) was 0.0102, the solubility (mole fraction) (in water, 332.9 K) was 0.0112 and the solubility (mole fraction) (in water, 338.15 K) was 0.0128. For the same compound, the solubility (mole fraction) (in water, 343.15 K) was 0.0142.
